Here are results for two compounds from article PMC10667816, “A Cell‐Penetrant Peptide Disrupting the Transcription Factor CP2c Complexes Induces Cancer‐Specific Synthetic Lethality” (Advanced Science, 2023).

SMILES strings stand for the structures. *1 amine or outer side, *2 acyl side, *3 side chain or, on linkers, in order; H or OH if unused. Where a SMILES comes first, the peptide text is derived from it. Side-chain parts run from the residue outwards. The star is where a group is joined. γGlu = O=C(O)[C@H](CCC(=O)[*:2])N[*:1]; Palmitoyl = CCCCCCCCCCCCCCCC(=O)*

For one data set, the system named is ICR mice. Briefly: Repeated toxicity test of ACP52CGK. To be noted: 100 mpk intravenously daily for 4 weeks, n = 6/group; brain, heart, liver. The format is in vivo, mouse. The method, then:
To assess the toxicity of ACP52C, twelve 6‐weeks‐old ICR mice (six males and six females) were divided into three groups, each containing two mice: one group received a saline, another received 100 mg kg^−1 of ACP52C, and the third received 1000 mg kg^−1 of ACP52C. For each group, one mouse was intravenously injected once, and the other one was intravenously injected twice with a four‐day interval between injections. At the time of sacrifice, major organs were analyzed by H&E staining. To assess the repeated toxicity of ACP52CGK, twenty‐four 6‐weeks‐old ICR mice (twelve males and twelve females) were used, dividing them into two groups of six mice each: one group received saline, and the other received 100 mg kg^−1 of ACP52CGK. […] Body weight, water and feed consumption were measured every 3 days after injection. […] Major organs were weighed and analyzed by H&E staining. H&E‐stained tissue sections were analyzed and photographed, and the representative histological images were recorded. […]
Repeated toxicity test of ACP52CGK were analyzed in ICR mice by intravenous injection of 100 mpk of ACP52CGK daily for 4 weeks (n = 6/group). A-C) Body weight (A), water consumption (B), and food consumption (C) were measured once every 3 days after injection. D-F) Major organ weight (D), CBC (E), and blood chemistry (F) were measured after sacrifice. Data are expressed as means ± SD in (B-F). […]

For data set [1], the target named is T1, endogenous nuclear and cytoplasmic CP2c complexes (Homo sapiens, UniProt Q12800).
T1 construct: dissociated all endogenous nuclear and cytoplasmic CP2c complexes; endogenous in cells
Briefly: DSP crosslinking‐Western blot of endogenous CP2c complexes. Format: cell-based. To be noted: DSP XL‐WB and WB with new protein synthesis inhibition. The method, then: Cell extracts were prepared using lysis buffer (50 mM Tris‐HCl, pH 7.4, 150 mM NaCl, 1 mM EDTA, 0.1% triton X‐100, and 1 mM PMSF). The cell extracts were separated by SDS‐PAGE and electro‐blotted onto polyvinylidene difluoride (PVDF) membranes (GE healthcare, 10600069). For slot blotting, the cell extracts were blotted onto nitrocellulose (NC) membranes (GE healthcare, 10484059) using a Bio‐Dot (Bio‐Rad, 1706542). Typically, membranes were blocked with 5% non‐fat dry milk in a solution of 0.1% Tween 20, and with 5% BSA in case of biotin blotting. Membranes were incubated overnight at 4 °C with appropriate dilutions of the primary antibodies (listed in Table S4, Supporting Information) after blocking. The blots were incubated for 1 h at room temperature with the respective HRP‐conjugated secondary antibodies (listed in Table S4, Supporting Information). Polyclonal ACTB antibody was used as a loading control for WB. […] Relative amounts of proteins were quantified using Image J (ver. 1.51) program.
To determine DNA‐free CP2c containing complexes, live cells were washed twice with the 2.5 mM sodium phosphate buffer, pH 7.4, crosslinked using 2 mM DSP in PBS for 3 h on ice, and crosslinking was terminated with 50 mM Tris‐HCl, pH 7.4, for 15 min at room temperature. […] Crosslinked samples were analyzed by pulldown assay or mass spectrometry.

Data set [2] concerns α‐globin mRNA expression in iMEL cells. Nature of the data set: Transcription inhibition of α‐globin mRNA expression. The format is cell-based, murine. As to conditions: α‐globin (Hba-a2) mRNA, 36 h after ACP52C treatment, two independent biological replicates, read-out: TI50 (the source's name). How it is done: To quantify mRNA expression of the gene of interest, cells were harvested, and total cellular RNA was extracted using Qiazol reagent (Qiagen, 79306). Purified RNA was dissolved in Diethyl pyrocarbonate (DEPC) water. Reverse transcription was performed using a High‐Capacity cDNA reverse transcription kit (Toyobo, FSQ‐201) in the presence of 400 ng of total RNA and 10 pmol random hexamer. PCR was performed using rTaq Plus 5X PCR master mix (Elpis‐Biotech, EBT‐1319) and the SYBR green Master Mix Kit. Amplifications were performed using a Light cycler 1.5 real‐time PCR system.^[ [43] ^] The relative mRNA expression levels were determined using the 2(−ΔCt) method, with GAPDH transcript levels serving as an internal control. Errors were calculated from at least two independent experiments. Oligonucleotide primers used in RT–qPCR are listed in Table S2 (Supporting Information).
Figure S13. The relationship between ACP52C-mediated growth inhibition and transcriptional
cell differentiation in vitro.
at 36 h after ACP52C treatment of various doses.
biological replicates. […] C)
expression in uMEL and iMEL c ells. D-G) Anticancer activity of ACP52C correlates with cellular
Modulation of GI50 values in cancer cells by
ACP52C treatment. […] Duplicated data
are expressed as means ± SD.

The subject of data set [3] is ACP52C‐resistant cancer cell lines. Nature of the data set: Growth inhibition of resistant cells with CASP2 inhibition. Format: cell-based, human. To be noted: combined with CASP2 inhibiting peptide Ac‐VDVAD‐CHO (10 µM).
Experimental: Various cell lines were treated with peptides, either alone or in combination with the CASP2 inhibitor (Ac‐VDVAD‐CHO; Enzo ALX‐260‐058‐M001) at various concentrations for 4 days. Cell viability was assessed on day 2 or day 4 using MTT (3‐(4,5‐dimethylthiazol‐2‐yl)‐2,5‐diphenyltetrazolium bromide; Sigma–Aldrich, M2128) assay. In brief, fresh cells were seeded in flat‐bottomed 96‐well tissue culture plates at appropriate concentrations for each cell line per well using complete culture medium. The cells were incubated in 100 µL of culture medium containing various concentration of chemicals or peptides at 37 °C for 0 to 96 h. A solution of MTT (5 mg mL^−1) was added to the culture medium, and the cells were further incubated at 37 °C for an additional 3 h. The MTT medium was then removed, and the formazan crystals were dissolved in DMSO (100 µL per well). The formazan concentration was measured spectrophotometrically at 490 nm using a Varioskan Flash Spectral Scanning Multimode Reader (Thermo Scientific Korea). Nonlinear regression curves for growth inhibition and GI50 values for each cell line were estimated from independent replicates using the Prism (version 6) software (GraphPad Software Inc.)

T1 sequence (Q12800 whole entry, one chain of several): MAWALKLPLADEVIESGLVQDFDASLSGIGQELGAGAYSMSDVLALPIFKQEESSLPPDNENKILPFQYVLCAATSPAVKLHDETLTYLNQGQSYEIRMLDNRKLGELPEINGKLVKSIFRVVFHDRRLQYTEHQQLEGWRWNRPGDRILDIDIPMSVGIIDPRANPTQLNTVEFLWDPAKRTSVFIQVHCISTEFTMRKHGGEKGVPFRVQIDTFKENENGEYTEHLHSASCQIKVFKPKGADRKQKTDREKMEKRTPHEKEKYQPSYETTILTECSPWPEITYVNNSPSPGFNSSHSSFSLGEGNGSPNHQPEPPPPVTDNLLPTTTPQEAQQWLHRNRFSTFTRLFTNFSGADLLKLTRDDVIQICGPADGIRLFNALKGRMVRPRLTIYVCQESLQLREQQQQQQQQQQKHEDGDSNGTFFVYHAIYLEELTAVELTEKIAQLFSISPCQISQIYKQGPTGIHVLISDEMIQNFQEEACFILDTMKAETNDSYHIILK

Turning to `CCCCCCCCCCCCCCCC(=O)N[C@@H](CCC(=O)NCCCC[C@H](NC(=O)CNC(=O)CNC(=O)[C@@H]1CCCN1C(=O)[C@H](CCCNC(=N)N)NC(=O)[C@H](CCC(N)=O)NC(=O)[C@@H]1CCCN1C(=O)[C@H](Cc1ccc(O)cc1)NC(=O)[C@H](CC(N)=O)NC(C)=O)C(=O)NCC(=O)NCC(=O)N[C@@H](CS)C(=O)N[C@@H](CCCNC(=N)N)C(=O)NCC(=O)N[C@@H](CC(=O)O)C(=O)N[C@@H](CCCCN)C(=O)NCC(=O)N1CCC[C@H]1C(=O)N[C@@H](CC(=O)O)C(=O)N[C@@H](CS)C(N)=O)C(=O)O` [ACP52CGK] (Ac-NYPQRPGGK([γGlu-Palmitoyl])GGCRGDKGPDC-NH2), in the data set on ICR mice, the “adverse effects in normal organs” value is listed as “did not induce any adverse effects”.

For `CC(=O)N[C@@H](CC(N)=O)C(=O)N[C@@H](Cc1ccc(O)cc1)C(=O)N1CCC[C@H]1C(=O)N[C@@H](CCC(N)=O)C(=O)N[C@@H](CCCNC(=N)N)C(=O)N1CCC[C@H]1C(=O)N[C@@H](CS)C(=O)N[C@@H](CCCNC(=N)N)C(=O)NCC(=O)N[C@@H](CC(=O)O)C(=O)N[C@@H](CCCCN)C(=O)NCC(=O)N1CCC[C@H]1C(=O)N[C@@H](CC(=O)O)C(=O)N[C@@H](CS)C(N)=O` [ACP52C] (Ac-NYPQRPCRGDKGPDC-NH2), the “dissociation of endogenous CP2c complexes” value in data set [1] was “readily dissociated all endogenous nuclear and cytoplasmic CP2c complexes”. Also, in data set [2], the IC50 is approximately 15 µM. The “sensitization by combined treatment” value in data set [3] is given as “sensitized ACP52C‐resistant cancer cell lines”.
